Square brackets hold non-standard residues; d marks the D form. Peptide text beside a SMILES is read from it. βAla = NCCC(=O)O
What was measured:
[1] = tested on: Candida albicans yeast (clinical isolate Olomouc); assay: Comparison of two similar halictin peptides for biofilm formation on the implant surface (yeast pipetted into a hole between implants); format: cell-based; details: 3.5 mg peptide in 100 mg powder cement component; two days; implant without peptide 1.8 × 10^3
Experimental: The experiment was performed under similar conditions as described in Example 5. Here, 100 mg of the powder cement component was used to prepare a paste, which was mixed with in 3.5 mg of peptide XIII and subsequently 52 µl of liquid component. The resulting paste was thoroughly mixed and then pressed into a hole prepared in the spongy part of the bone. To a next hole in the spongy part of the same bone a paste was pressed, containing comparative peptide Hal 2/4 (3.5 mg) with the sequence H-[…]NH2, which was also prepared from 100 mg of the powder component and 52 µl of the liquid component. The third hole was filled with paste without peptide prepared from the same amount of components. The Candida albicans yeast (clinical isolate Olomouc), grown in YPG, was pipetted in the hole excavated between implants equidistant (approximately 1 cm) from each. From there, the yeast penetrated through the bone tissue and was deposited on the implant with consequent formation of biofilms.
Then the implants in closed tubes with 0.4 ml of saline were treated ultrasonically four times for three minutes with occasional shaking. This way, microbial biofilm on the surface of the implant was disrupted and microbes loosed into the physiological saline. The resulting suspension was then diluted in a decimal dilution series for culturing on agar. […]

[2] = tested on: P.a. (clin. isolate Liberec); format: cell-based, Pseudomonas aeruginosa; details: 37° C for 20 h
Experimental: (§1) Gram-positive bacteria (Bacillus subtilis, Staphylococcus aureus, Staphylococcus epidermidis and Enterococcus faecalis), Gram-negative bacteria (Escherichia coli and Pseudomonas aeruginosa) and the yeast (Candida albicans) were grown to exponential phase and then were diluted with fresh medium. BHI medium (Oxoid, Great Britain) was used for Enterococcus faecalis; YPD medium containing yeast extract, peptone and glucose was used for Candida albicans and LB medium (Sigma, Czech Republic) was used for the remaining microorganisms. Then the microorganisms were added to the solutions of the tested antimicrobial peptides in LB medium in multi-well plates, so that the final peptide concentration it the wells was in the range of 0.5 to 100 µmοl.1^-1. The plates were incubated at 37° C for 20 h while being continuously shaken in a Bioscreen C (Oy Growth Curves AB Ltd., Helsinki, Finland). Absorbance was measured at 540 nm every 15 min. Antimicrobial activity (Table 2) was determined as a quantitative minimum inhibitory concentration (MIC) by observing bacterial growth in the presence of different concentrations of tested peptides. In the experiments, ca 10^5 CFU of bacteria or candida per well were used. Tetracycline in a concentration range of 0.5 - 100 µmol.1^-1 was used as a standard.
(§2) Clinical isolates of bacteria were obtained from University Hospital in Motol, Prague, Czech Republic and from Liberec Regional Hospital, Czech Republic. Methicillin resistant Staphylococcus aureus (MRSA) 6271 and Pseudomonas aeruginosa 5482 were from the Czech National Collection of Type Cultures, the National Institute of Public Health, Prague, Czech Republic. Other bacteria were from the Czech Collection of Microorganisms, Brno, Czech Republic. Candida albicans came from the Faculty of Medicine, Palacky University, Olomouc, Czech Republic. Candida tropicalis ATCC 750 and Candida glabrata DSY 565 were obtained from the Institute of Physiology, Academy of Sciences of the Czech Republic.

P.a. 5482 = format: cell-based, Pseudomonas aeruginosa; details: 37° C for 20 h
Experimental: as §1, §2

[3] = tested on: Staphylococcus aureus (MRSA 6271); assay: Eradication of the infection inside the spongy bone tissue (bone grafts, peptide in carrier); format: cell-based; details: carrier (200 mg) with peptide VIII (10 mg), two days
Experimental: Experiments was carried out similarly as described above using two graft bones. The suspension of Staphylococcus aureus (MRSA 6271) in LB medium (50 - 100 µl) in the concentration 10^9 CFU/ml was pipetted into two holes drilled in each bone graft. On the next day the one hole in one bone graft was filled with the carrier (200 mg) blended with peptide VIII (10 mg). The second hole was filled with carrier alone (200 mg). In the second bone graft the two holes were filled identically.
The experiments were evaluated after two days of the treatment by the comparison of the number of bacterial colonies (CFU/ml) related to the infected hole in which the peptide was released from the carrier and acted against the infection, against the number of the colonies related to the infected hole which was filled only with the carrier alone. The results of these two independent experiments which are summarized in Table 5 clearly show high efficacy of the peptide VIII. Table 5. Effect of peptide VIII on the eradication of the infection inside the spongy bone tissue Carried out in two independent experiments.

human red blood cells = assay: Determination of haemolytic activity; format: cell-based; details: human red blood cells (5% v/v), 1 h at 37 °C; concentration for lysis of 50% of erythrocytes
Experimental: The peptides in the concentrations 2-400 µmol.1^-1 were incubated with the suspension of human red blood cells (5% v/v) for 1 h at 37 °C in a physiological solution at a final volume of 0.2 ml. The samples were then centrifuged for 5 min at 250 g. The absorbance of the supernatant was determined at 540 nm. 0.2% (v/v) TRITON X100 was used as a control for 100% haemolysis. Haemolytic activity is expressed as the peptide concentration required for lysis of 50% of human erythrocytes in the assay (LC50). Table 2. Antimicrobial and haemolytic activity of I up to XIII peptides and tetracycline.

Bacillus subtilis = format: cell-based; details: B.s.; 37° C for 20 h
Experimental: as §1, §2

Escherichia coli = format: cell-based; details: E.c.; 37° C for 20 h
Experimental: as §1, §2

Candida albicans = format: cell-based; details: C.a.; 37° C for 20 h
Experimental: as §1, §2

[4] = tested on: MRSA (clin. isolate Motol); format: cell-based, Staphylococcus aureus; details: 37° C for 20 h
Experimental: as §1, §2

MRSA 6271 = format: cell-based, Staphylococcus aureus; details: 37° C for 20 h
Experimental: as §1, §2

[5] = tested on: MRSA (clin. isolate Liberec); format: cell-based, Staphylococcus aureus; details: 37° C for 20 h
Experimental: as §1, §2

[6] = tested on: S.e. (clin. isolate Motol); format: cell-based, Staphylococcus epidermidis; details: 37° C for 20 h
Experimental: as §1, §2

[7] = tested on: S. aureus (clin. isolate Liberec); assay: Induced osteomyelitis model in femur heads: effect of peptides released from carrier on infection in the bone graft; format: cell-based; details: ChronOS (200 mg), 10 mg, two days
Experimental: (§3) 3-4 holes of a diameter of 5 mm and a depth of 10 mm are drilled with a surgical spoon into a femur head under sterile conditions (spongy part of the bone in the resection site). Thereafter, this bone graft is put into a beaker of appropriate size and lined with sterile gauze squares. The gauze is moistened with sterile physiological saline to prevent drying of the bone. Then, suspension of multiplied microbes in an appropriate medium (50-100 µl) at a concentration of 10^7 to 10^9 CFU is sequentially applied to the prepared holes in the bone graft and allowed to incubate for 1-2 days. […] Beaker with the infected bone graft is covered with a sterile Petri dish. During the experiment, induced osteomyelitis models are kept protected from light at room temperature.
(§4) After the incubation, the infected holes in the bone are filled with a mixture of the local carrier, and a peptide selected from the series of peptides of formulae I to XIII or their specific enantiomers (Figure 1). For comparison, one of the holes is filled with the local carrier without peptide, or the carrier filled with antibiotic (vancomycin or gentamicin). A commercially available two-component material supplied by Synthes (Synthes GmbH, Switzerland) under the name ChronOS Inject was used as the carrier. Its solid component comprises a mixture of calcium phosphates CaHPO4.2H2O and Ca3(PO4)2 and additives, the liquid component is 0.5% (vol./vol.) solution of hyaluronic acid.
(§5) After two days, the filling is thoroughly removed with a surgical spoon and empty holes are wiped with moistened sterile cotton swab, which is then extracted into 400 µl physiological saline. The extract is diluted in a tenfold serial dilution and each diluted suspension is cultured on agar in Petri dishes; the culture is evaluated on the following day. […] The result of the peptide effect is also compared with the result of the effect of antibiotics. In some cases, microbiological examination of the bone tissue taken with a surgical spoon from a deeper area of the drilled holes is performed. […] Table 3. Evaluation of the effect of antimicrobial peptides released from the carrier on an infection in the bone graft. Effect of antimicrobial activity is expressed in the number of CFU (colony-forming units) in the infected hole after swabbing.

[8] = tested on: S. epidermidis (clin. isolate Motol); assay: as above; format: cell-based; details: ChronOS (300 mg); 10 mg, separate holes; two days; carrier without peptide 1,2x10^5
Experimental: as §3, §4, §5

[9] = tested on: E.f. (clin. isolate Motol); format: cell-based, Enterococcus faecalis; details: 37° C for 20 h
Experimental: as §1, §2

[10] = tested on: MRSA (clin. isolate Motol); assay: Induced osteomyelitis model in femur heads: effect of peptides released from carrier on infection in the bone graft; format: cell-based, Staphylococcus aureus; details: ChronOS (200 mg); 10 mg; two days; carrier without peptide 4,8x10^6
Experimental: as §3, §4, §5

P. aeruginosa 5482 = assay: as above; format: cell-based; details: ChronOS (200 mg); V (9 mg); two days; carrier without peptide 1,0x10^9
Experimental: as §3, §4, §5

[11] = tested on: MRSA (clin. isolate Liberec); assay: Biofilm formation on the surface of a bone cement implant in femur heads; format: cell-based, Staphylococcus aureus; details: two days, cement without peptide 7,0x10^6
Experimental: The resulting elastic paste is placed into a 2 ml plastic syringe (without needle) and pressed into the infected holes in the spongy part of the bone, where it polymerizes and hardens. For comparison, other similarly infected holes are filled with cement containing only an antibiotic or antimycotic agent. For comparison, a Vancogenx® cement (Tecresa S. p. A., Italy) is used, made from a mixture of a powdered polymer component containing vancomycin and gentamicin. The mixture in an amount of 125 mg is mixed with liquid monomer (50-60 µl) and then pressed into the openings as described above. In another embodiment, the cements are applied to uninfected holes, allowed to harden, and then microbes are pipetted into the hole excavated between implants. From there they penetrate through bone tissue and settle on the implants with consequent formation of biofilms.
After two days, implants are removed with metal spikes and tweezers, mechanically cleaned from debris of bone tissue, and washed four times with physiological saline (0.5 ml) in plastic tubes to remove any residual planktonic microbes or bone cells from their surface. The implants in closed tubes with 0.4 ml saline are then sonicated four times for 3 min with occasional shaking. The of microbial biofilm on the surface of the implant is thus disrupted and microbes are loosed into the physiological saline. […]

CC[C@H](C)[C@H](NC(=O)[C@H](CCCCN)NC(=O)[C@H](CCCCN)NC(=O)[C@H](CC(C)C)NC(=O)[C@H](CC(C)C)NC(=O)[C@H](CO)NC(=O)[C@H](CCSC)NC(=O)[C@H](Cc1c[nH]c2ccccc12)NC(=O)[C@@H](N)CCCCN)C(=O)N[C@@H](CC(C)C)C(=O)N[C@@H](CCCCN)C(N)=O [Hal 4/2, reference compound] (H-KWMSLLKKILK-NH2)
number of colonies from the surface of the implant [1]: 2.8 × 10^2 CFU/implant

CC[C@H](C)[C@H](NC(=O)[C@H](CCCCN)NC(=O)[C@H](CCCCN)NC(=O)[C@H](CC(C)C)NC(=O)[C@H](CC(C)C)NC(=O)[C@H](CCCCN)NC(=O)[C@@H](NC(=O)[C@H](Cc1c[nH]c2ccccc12)NC(=O)[C@H](CCCCN)NC(=O)CN)C(C)C)C(=O)N[C@@H](CC(C)C)C(=O)N[C@@H](CCCCN)C(N)=O [Peptide VIII] (H-GKWVKLLKKILK-NH2)
Antimicrobial activity MIC [2]: 12,7 µmol.l^-1 | Antimicrobial activity MIC (P.a. 5482): 3,0 µmol.l^-1 | CFU/hole ([3]; first experiment, no peptide 1.2x10^7): 0 CFU/ hole | CFU/hole ([3]; second experiment, no peptide 3.6x10^6): 4.8x10^2 CFU/ hole | Hemolytic activity LC50 (human red blood cells): >400 µmol/L | Antimicrobial activity MIC (Bacillus subtilis): 2,0 µmol.l^-1 | Antimicrobial activity MIC (Escherichia coli): 6,3 µmol.l^-1 | Antimicrobial activity MIC (Candida albicans): 6,3 µmol.l^-1 | Antimicrobial activity MIC [4]: 10,0 µmol.l^-1 | Antimicrobial activity MIC (MRSA 6271): 9,0 µmol.l^-1 | Antimicrobial activity MIC [5]: 5,0 µmol.l^-1 | Antimicrobial activity MIC [6]: 2,5 µmol.l^-1 | CFU/hole ([7]; separate holes, carrier without peptide 3,9x10^6): 0 CFU/hole | CFU/hole [8]: 0 in all cases CFU/hole | Antimicrobial activity MIC [9]: >100 µmol/L

CC[C@H](C)[C@H](NC(=O)[C@H](CCCCN)NC(=O)[C@H](CCCCN)NC(=O)[C@H](CC(C)C)NC(=O)[C@H](CC(C)C)NC(=O)[C@H](CCCCN)NC(=O)[C@H](CCSC)NC(=O)[C@H](Cc1c[nH]c2ccccc12)NC(=O)[C@H](CCCCN)NC(=O)CCN)C(=O)N[C@@H](CC(C)C)C(=O)N[C@@H](CCCCN)C(N)=O [Peptide V] (H-[βAla]KWMKLLKKILK-NH2)
Antimicrobial activity MIC [2]: 7,0 µmol.l^-1 | Antimicrobial activity MIC (P.a. 5482): 2,8 µmol.l^-1 | Hemolytic activity LC50 (human red blood cells): 270 µmol/L | Antimicrobial activity MIC (Bacillus subtilis): 1,8 µmol.l^-1 | Antimicrobial activity MIC (Escherichia coli): 6,8 µmol.l^-1 | Antimicrobial activity MIC (Candida albicans): 11,3 µmol.l^-1 | CFU/hole [10]: 4,0 CFU/hole | Antimicrobial activity MIC [4]: 10,0 µmol.l^-1 | Antimicrobial activity MIC (MRSA 6271): 11,3 µmol.l^-1 | Antimicrobial activity MIC [5]: 5,7 µmol.l^-1 | Antimicrobial activity MIC [6]: 2,8 µmol.l^-1 | CFU/hole (P. aeruginosa 5482): 2,0x10^5 CFU/hole | Antimicrobial activity MIC [9]: 59,0 µmol.l^-1

CC[C@H](C)[C@H](NC(=O)[C@H](CCCCN)NC(=O)[C@H](CCCCN)NC(=O)[C@H](CC(C)C)NC(=O)[C@H](CCSC)NC(=O)[C@H](CCCCN)NC(=O)[C@H](CCSC)NC(=O)[C@H](Cc1c[nH]c2ccccc12)NC(=O)[C@H](CCCCN)NC(=O)CN)C(=O)N[C@@H](CC(C)C)C(=O)N[C@@H](CCCCN)C(N)=O [XI] (H-GKWMKMLKKILK-NH2)
CFU/implant [11]: 0 CFU/implant | Antimicrobial activity MIC [2]: 12,7 µmol.l^-1 | Antimicrobial activity MIC (P.a. 5482): 5,3 µmol.l^-1 | Hemolytic activity LC50 (human red blood cells): >>200 µmol.l^-1 | Antimicrobial activity MIC (Bacillus subtilis): 2,5 µmol.l^-1 | Antimicrobial activity MIC (Escherichia coli): 20,0 µmol.l^-1 | Antimicrobial activity MIC (Candida albicans): 12,7 µmol.l^-1 | Antimicrobial activity MIC [4]: 20,0 µmol.l^-1 | Antimicrobial activity MIC (MRSA 6271): 20,0 µmol.l^-1 | Antimicrobial activity MIC [5]: 10,0 µmol.l^-1 | Antimicrobial activity MIC [6]: 3,2 µmol.l^-1 | CFU/hole ([7]; carrier without peptide 2,0x10^6): 2,5 x10^3 CFU/hole | Antimicrobial activity MIC [9]: >100 µmol/L
